# Experimental data reported in patent US9068987B2, “Inhibitors of extracellular HSP90” (TRUSTEES OF TUFTS COLLEGE, priority 2003, dated 2015).
# Experiments:
# MMP2 (72 kDa gelatinase) = test: Zymography of secreted MMP2 after geldanamycin treatment; type: cell-based, human; settings: HT-1080 cells, 20 μM in serum-free media
# Procedure: HT-1080 cells were treated with 20 μM geldanamycin (GA) in serum-free media and assayed by zymography. MMP2 (72 kDa gelatinase) activity was decreased by ˜35% after GA treatment. Total protein content was visualized by silver staining to ensure equal loading.
# We then applied a known Hsp90 inhibitor, geldanamycin, to HT-1080 cells to test whether inhibition of Hsp90 reduced MMP2 activity. HT-1080 cells were treated with 20 μM geldanamycin (GA) in serum-free media and secreted MMP2 was assayed by zymography. MMP2 (72 kDa gelatinase) activity was decreased by ˜35%; p<0.01 after GA treatment. Total protein content in conditioned media was visualized by silver staining to ensure equal loading. (See, FIG. 18).
# HT-1080 cells [1] = test: In vitro invasion assay with geldanamycin or GA-beads (Example 8); type: cell-based, human; settings: 10 μM for 1 hour; eliminated when activated MMP2 (100 ng) was added; data not shown
# HT-1080 cells [2] = test: Invasion assay after 1 hour pre-treatment with novobiocin or nalidixic acid; type: cell-based, human; settings: cells pre-treated for 1 hour; normalized to no drug control; result in words
# Procedure: HT-1080 cells were pre-treated for 1 hour with novobiocin or nalidixic acid and an invasion assay was performed. […] Viability of cells in this assay was not affected (data not shown). Each data point is normalized to the no drug control and represents the mean.+−.s.e.m. of 2 experiments in triplicate.
# (§1) The ChemoTx® system (Neuro Probe Inc. #106-8, Gaithersburg) was used as a disposable chemotaxis/cell migration chamber in a 96 well format with an 8 μm filter Track etched Polycarbonate pore size, 5.7 mm diameter/site.
# (§2) 13.3 μl of 0.3 mg/ml Matrigel (see Example 8) diluted in cold Dulbeccos PBS (Gibco #14040-091) was applied on the membrane filter of the 96-well plate on row B-H and on row A0.3 μg/site of mouse collagen, type IV (Becton-Dickenson #354233) was diluted in 0.05 M HCL (Sigma #945-50) and was incubated over night at 20° C. in a desiccator for gelation, HT-1080 cells were grown to 70-80% confluence in DMEM supplemented with MEM non-essential amino acids (IX, Gibco #11140050) and Penicillin/Streptomycin (1×, Gibco #15140122) with 10% FBS (Hyclone #SH30070.03). […] After scraping the non-migrating cells from the top of the membrane (except the Standard curve on row A) fluorescence of cells, which had migrated through the membrane (not migrated in case of the Standard curve), was measured on the Tecan Spectrafluor Plus fluorescence plate reader (excitation: 544, emission: 590 nm). […]
# [3] = tested on: matrix metalloprotease (MMP); test: Gelatin zymography of conditioned media (MMP secretion/activity); type: cell-based, human; settings: 40,000 HT-1080 cells treated 6 hours
# Procedure: 40,000 HT-1080 cells were treated for 6 hours with novobiocin or nalidixic acid (as a control) at the given concentrations. […] Two bands (A and B) correspond to unidentified MMPs. (Image inverted for clarity.)
# 40,000 HT-1080 cells were treated for 6 hours with novobiocin or nalidixic acid at the given concentrations. The conditioned media from treated cells was separated using a SDS-PAGE gel containing 10 mg/mL gelantin. SDS was removed from the gel using 2.5% Triton-X-100 for 30 minutes at room temperature. Proteins were allowed to digest the gelatine in digestion buffer (0.1M […], pH 8.0, 5 mM CaCl2, 0.04% NaN3) for 48 hours at 37° C. Gels were coomassie-stained and dried for densitometry. Parallel gels were silver stained to show equal loading of protein (data not shown).
# HT-1080 cells [4] = test: Viability of cells in the novobiocin invasion assay; type: cell-based, human; settings: data not shown
# Procedure: 8×10^6 HT-1080 cells/mL were pretreated for 1 hour with novobiocin or nalidixic acid at the concentrations shown and an invasion assay was performed as described in Example 9.1. […] Viability of novobiocin-treated cells in this assay was not affected (data not shown). Each data point is normalized to the no drug control and represents the mean.+−.s.e.m. of 2 experiments in triplicate.
# HT-1080 cells [5] = test: Invasion assay with FITC-labelled antibodies and CALI (Example 9.1); type: cell-based, human; settings: FITC-labelled antibody, 300 W blue-filtered light for one hour; result in words
# Procedure: Each bar is normalized to dark control and represents the mean.+−.s.e.m of at least 2 experiments in triplicate.
# as §1, §2
# HT-1080 cells [6] = test: Cell-matrix adhesion assay (Collagen S type I); type: cell-based, human; settings: FITC labeled scFv, assay with CALI; data not shown
# Procedure: 96-well plates (TPP #9296) (cell culture treated) were coated in Row B-H with collagen S type I 1 μg/well (Roche #10982929) in Dulbeccos PBS (Gibco #14040-091) and in Row A well 10-12 were coated with 2% BSA (Sigma #A-7030)/Dulbeccos PBS at 4° C. over night. The plate was washed with Dulbeccos PBS, blocked Row B-H and Row A well 10-12 with 2% BSA/Dulbeccos PBS for 1 h at 37° C. and washed again with Dulbeccos PBS. […] Fluorescence of cells, which had adhered to the Collagen S type 1 (not adhered in case of the Standard curve), was measured on the Fluostar Galaxy (bMG) microplate reader using excitation/emission wavelengths of 370/460 nm. scFv1 inhibited the adhesion of HT-1080 cells to Collagen S type 1 by 50%. […]
# HT-1080 cells [7] = test: FACS analysis for tumor cell specific binding; set-up: species or system human; settings: 10 μg/ml scFv; HT-1080 versus HS-27 control cells
# Procedure: The binding activity of scFv1 to HT-1080 cells (bold line) and to HS-27 cells (thin line) as control is illustrated.
# To test the ability of purified anti HT-1080 scFv to bind specifically to target cells, we performed a fluorescence-activated cell sorter (FACS) analysis using HT-1080 cells (ATCC CCL-121) and Hs-27 cells (10^6 cells/ml) as control cell line (see Figures). Cells were incubated with 10 μg/ml of pure scFv in CellWash (BD (Becton, Dickinson and Company) #349524) for 20 min at 4° C., washed, and bound scFv's were detected with a secondary FITC labeled anti E-tag mab (Amersham #27-9412-01). Samples were washed and analyzed on a Becton Dickinson FACSscan. […] The thin line represents the control cell line (HS-27) and the bold line the HT-1080 cells. scFv1 specifically stains the tumor cell lines with up to 10 fold higher signal compared to the control cell line.
molecule,measurement,setting,value
COC1=C2C[C@@H](C)C[C@H](OC)[C@H](O)[C@@H](C)/C=C(\C)[C@H](OC(N)=O)[C@@H](OC)/C=C\C=C(/C)C(=O)NC(=CC1=O)C2=O [geldanamycin],decrease of MMP2 (72 kDa gelatinase) activity,MMP2 (72 kDa gelatinase),~35%
same,decrease of invasion of HT-1080 cells,HT-1080 cells [1],~35%
CCn1cc(C(=O)O)c(=O)c2ccc(C)nc21 [nalidixic acid],effect on invasion of HT-1080 cells,HT-1080 cells [2],no effect on invasion
same,reduction of MMP enzyme activity,[3]; zymography,no reduction of enzyme activity
CO[C@@H]1[C@@H](OC(N)=O)[C@@H](O)[C@H](Oc2ccc3c(O)c(NC(=O)c4ccc(O)c(CC=C(C)C)c4)c(=O)oc3c2C)OC1(C)C [novobiocin],effect on invasion of HT-1080 cells,HT-1080 cells [2],dose-dependent inhibition of invasion
same,viability of treated cells,HT-1080 cells [4],not affected
same,decrease of MMP activity,"[3]; highest concentration tested, zymography densitometry",> 75%
"JB1: FITC-labeled anti-beta 1 integrin monoclonal antibody (JB1, Chemicon #MAB1963), positive control",reduction of invasion after exposure to light,HT-1080 cells [5],"significant (p<0.01, unpaired t-test) reduction of invasion"
"scFv1: single chain Fv antibody fragment from phage library of mice immunized with HT-1080 cells; SEQ ID NO: 1 (protein, listed as Mus sp.) scFv: QVQLKESGAELVKPGASVKLSCTASGFNIKDYYMHWVKQRTEQGLEWIGRIDPEDGETKYAPKFQGKATITADTSSNTAYLQLSSLTSEDTAVYYCARSYDYAMDYWGQGTTVTVSTGGGGSGGGGSGGGGSALQIVLTQSPALMSASPGEKVTMTCSASSSVSYMHWYQQKSGTSPKRWIYDTSKLASGVPARFSGSGSGTSYSLTISSMEAEDAATYYCQQWSSNPLTFGAGTKLELKAAAGAPVPYPDPLEPRGAASAWSHPQFEK",inhibition of adhesion of HT-1080 cells to Collagen S type 1,HT-1080 cells [6],50%
same,FACS signal on tumor cell line compared to control cell line,HT-1080 cells [7],up to 10 fold
